# In US8399681B2, “Substituted aminothiazolone indazoles as estrogen related receptor-alpha modulators” (Janssen Pharmaceutica NV, priority 2009, dated 2013):
# Molecular target: T1, ERR1 (also known as ERR-α or ERR-1) (Homo sapiens, UniProt P11474)
# T1 sequence (P11474 193-421 limits assumed): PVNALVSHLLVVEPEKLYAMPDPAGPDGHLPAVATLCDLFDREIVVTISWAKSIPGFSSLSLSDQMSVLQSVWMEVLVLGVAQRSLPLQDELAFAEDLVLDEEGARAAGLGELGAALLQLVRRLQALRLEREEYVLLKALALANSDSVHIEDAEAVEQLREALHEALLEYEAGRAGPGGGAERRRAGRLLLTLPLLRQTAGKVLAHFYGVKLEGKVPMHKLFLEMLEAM
# Test: TR-FRET assay (disruption of co-activator peptide binding)
# Assay type: biochemical
# Conditions: 6His-tagged ERR1 LBD, GST-hSRC2 co-activator polypeptide; average of 3 independent experiments
# Outline: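 Compound-induced loss of co-activator recruitment, read by time-resolved FRET (excitation 340 nm; 615 and 665 nm emission) after 4-18 h at 25 °C. Reagents: 6 nM ERR1LBD, 6 nM GST-SRC-2, 30 nM Eu cryptate, 7.5 nM XL665, pH 8 Tris buffer. Values: hyperbolic fits averaged over 3 independent runs.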
row,EC50 [nM],SMILES
1,134,"C=C(C)c1ccc(Cn2ncc3cc(/C=C4\SC(N5CCN[C@@H](CO)C5)=NC4=O)ccc32)c(Cl)c1 [Example 230, 5-({1-[2-Chloro-4-(1-methylethenyl)benzyl]-1H-indazol-5-yl}methylidene)-2-[3-(R)-(hydroxymethyl)piperazin-1-yl]-1,3-thiazol-4(5H)-one]"
2,490,"CC(C)(O)c1ccc(Cn2ncc3cc(/C=C4\SC(N5CCO[C@@H](CO)C5)=NC4=O)ccc32)c(Cl)c1 [Example 231, 5-({1-[2-Chloro-4-(1-hydroxy-1-methylethyl)benzyl]-1H-indazol-5-yl}methylidene)-2-[2-(R)-(hydroxymethyl)morpholin-4-yl]-1,3-thiazol-4(5H)-one]"
3,795,"CN1CCN(C2=NC(=O)/C(=C/c3ccc4c(cnn4Cc4ccc(C(C)(C)O)cc4Cl)c3)S2)CC1 [Example 232, 5-({1-[2-Chloro-4-(1-hydroxy-1-methylethyl)benzyl]-1H-indazol-5-yl}methylidene)-2-(4-methylpiperazin-1-yl)-1,3-thiazol-4(5H)-one]"
4,127,"C[C@@H]1CN(C2=NC(=O)/C(=C/c3ccc4c(cnn4Cc4ccc(C(C)(C)O)cc4Cl)c3)S2)C[C@H](C)N1 [Example 233, 5-({1-[2-Chloro-4-(1-hydroxy-1-methylethyl)benzyl]-1H-indazol-5-yl}methylidene)-2-(3,5-(cis)-dimethylpiperazin-1-yl)-1,3-thiazol-4(5H)-one]"
5,16,"COC[C@@H]1CN(C2=NC(=O)/C(=C/c3ccc4c(cnn4Cc4ccc(C(F)(F)F)cc4C(F)(F)F)c3)S2)CCO1 [Example 234, 5-({1-[2,4-Bis(trifluoromethyl)benzyl]-1H-indazol-5-yl}methylidene)-2-[2-(S)-(methoxymethyl)morpholin-4-yl]-1,3-thiazol-4(5H)-one]"
6,5,"COC[C@@H]1CN(C2=NC(=O)/C(=C/c3ccc4c(cnn4Cc4ccc(Cl)cc4C(F)(F)F)c3)S2)CCO1 [Example 235, 5-({1-[4-Chloro-2-(trifluoromethyl)benzyl]-1H-indazol-5-yl}methylidene)-2-[2-(S)-(methoxymethyl)morpholin-4-yl]-1,3-thiazol-4(5H)-one]"
7,3,"COC[C@@H]1CN(C2=NC(=O)/C(=C/c3ccc4c(cnn4Cc4ccc(O)cc4C(F)(F)F)c3)S2)CCO1 [Example 236, 5-({1-[4-Hydroxy-2-(trifluoromethyl)benzyl]-1H-indazol-5-yl}methylidene)-2-[2(S)-(methoxymethyl)morpholin-4-yl]-1,3-thiazol-4(5H)-one]"
8,6,O=C1N=C(N2CCO[C@@H](CO)C2)S/C1=C\c1ccc2c(cnn2Cc2ccc(Br)cc2C(F)(F)F)c1 [Example 237]
9,11,"C[C@@H]1CN(C2=NC(=O)/C(=C/c3ccc4c(cnn4Cc4ccc(C(F)(F)F)cc4C(F)(F)F)c3)S2)C[C@H](C)N1 [Example 238, 5-({1-[2,4-(trifluoromethyl)benzyl]-1H-indazol-5-yl}methylidene)-2-(3,5-(cis)-dimethylpiperazin-1-yl)-1,3-thiazol-4(5H)-one]"
10,18,"C[C@@H]1CN(C2=NC(=O)/C(=C/c3ccc4c(cnn4Cc4ccc(C(F)(F)F)cc4C(F)(F)F)c3)S2)C[C@H](C)N1C [Example 239, 5-({1-[2,4-Bis(trifluoromethyl)benzyl]-1H-indazol-5-yl}methylidene)-2-((3R,5S)-3,4,5-trimethylpiperazin-1-yl)-1,3-thiazol-4(5H)-one]"
11,9,"C[C@@H]1CN(C2=NC(=O)/C(=C/c3ccc4c(cnn4Cc4ccc(C(F)(F)F)cc4C(F)(F)F)c3)S2)C[C@H](C)[N+]1(C)C [Example 240, (2R,6S)-4-[5-({1-[2,4-Bis(trifluoromethyl)benzyl]-1H-indazol-5-yl}methylidene)-4-oxo-4,5-dihydro-1,3-thiazol-2-yl]-1,1,2,6-tetramethylpiperazin-1-ium chloride]"
12,4,"C[C@@H]1CN(C2=NC(=O)/C(=C/c3ccc4c(cnn4Cc4ccc(Cl)cc4C(F)(F)F)c3)S2)C[C@H](C)N1 [Example 241, 5-({1-[4-Chloro-2-(trifluoromethyl)benzyl]-1H-indazol-5-yl}methylidene)-2-((3R,5S)-3,5-dimethylpiperazin-1-yl)-1,3-thiazol-4(5H)-one]"
13,30,"CN1CCN(C2=NC(=O)/C(=C/c3ccc4c(cnn4Cc4ccc(C(C)(C)O)cc4C(F)(F)F)c3)S2)CC1 [Example 242, 5-({1-[4-(1-Hydroxy-1-methylethyl)-2-(trifluoromethyl)benzyl]-1H-indazol-5-yl}methylidene)-2-(4-methylpiperazin-1-yl)-1,3-thiazol-4(5H)-one]"
14,38,"C[C@@H]1CN(C2=NC(=O)/C(=C/c3ccc4c(cnn4Cc4ccc(C(C)(C)O)cc4C(F)(F)F)c3)S2)C[C@H](C)N1 [Example 243, 2-((3R,5S)-3,5-Dimethylpiperazin-1-yl)-5-({1-[4-(1-hydroxy-1-methylethyl)-2-(trifluoromethyl)benzyl]-1H-indazol-5-yl}methylidene)-1,3-thiazol-4(5H)-one]"
15,110,"CC(C)(O)c1ccc(Cn2ncc3cc(/C=C4\SC(N5CCO[C@H](CO)C5)=NC4=O)ccc32)c(C(F)(F)F)c1 [Example 244, 5-({1-[4-(1-Hydroxy-1-methylethyl)-2-(trifluoromethyl)benzyl]-1H-indazol-5-yl}methylidene)-2-[2-(S)-(hydroxymethyl)morpholin-4-yl]-1,3-thiazol-4(5H)-one]"
16,235,CC(C)(O)c1ccc(Cn2ncc3cc(/C=C4\SC(N5CCC(C(=O)O)CC5)=NC4=O)ccc32)c(C(F)(F)F)c1 [Example 245]
17,230,"CC(C)(O)c1ccc(Cn2ncc3cc(/C=C4\SC(N5CCN[C@@H](CO)C5)=NC4=O)ccc32)c(C(F)(F)F)c1 [Example 246, 5-({1-[4-(1-Hydroxy-1-methylethyl)-2-(trifluoromethyl)benzyl]-1H-indazol-5-yl}methylidene)-2-[3-(R)-(hydroxymethyl)piperazin-1-yl]-1,3-thiazol-4(5H)-one]"
18,41,"C=C(C)c1ccc(Cn2ncc3cc(/C=C4\SC(N5CCN[C@@H](CO)C5)=NC4=O)ccc32)c(C(F)(F)F)c1 [Example 247, 2-[3-(R)-(Hydroxymethyl)piperazin-1-yl]-5-({1-[4-(1-methylethenyl)-2-(trifluoromethyl)benzyl]-1H-indazol-5-yl}methylidene)-1,3-thiazol-4(5H)-one]"
19,14,"COc1ccc(Cn2ncc3cc(/C=C4\SC(N5CCN[C@@H](CO)C5)=NC4=O)ccc32)c(C(F)(F)F)c1 [Example 248, 2-[3-(R)-(Hydroxymethyl)piperazin-1-yl]-5-({1-[4-methoxy-2-(trifluoromethyl)benzyl]-1H-indazol-5-yl}methylidene)-1,3-thiazol-4(5H)-one]"
20,4,"O=C1N=C(N2CCO[C@@H](CO)C2)S/C1=C\c1ccc2c(cnn2Cc2ccc(O)cc2C(F)(F)F)c1 [Example 249, 2-[(2R)-2-(Hydroxymethyl)morpholin-4-yl]-5-({1-[4-hydroxy-2-(trifluoromethyl)benzyl]-1H-indazol-5-yl}methylidene)-1,3-thiazol-4(5H)-one]"
21,190,"O=C1N=C(N2CCN[C@@H](CO)C2)S/C1=C\c1ccc2c(cnn2Cc2ccc(O)cc2C(F)(F)F)c1 [Example 250, 2-[(3R)-3-(Hydroxymethyl)piperazin-1-yl]-5-({1-[4-hydroxy-2-(trifluoromethyl)benzyl]-1H-indazol-5-yl}methylidene)-1,3-thiazol-4(5H)-one]"
22,4,"O=C1N=C(N2CCO[C@H](CO)C2)S/C1=C\c1ccc2c(cnn2Cc2ccc(O)cc2C(F)(F)F)c1 [Example 251, 2-[(2S)-2-(Hydroxymethyl)morpholin-4-yl]-5-({1-[4-hydroxy-2-(trifluoromethyl)benzyl]-1H-indazol-5-yl}methylidene)-1,3-thiazol-4(5H)-one]"
23,190,"CN(C)[C@@H]1CCN(C2=NC(=O)/C(=C/c3ccc4c(cnn4Cc4ccc(C(F)(F)F)cc4C(F)(F)F)c3)S2)C1 [Example 252, 5-({1-[2,4-Bis(trifluoromethyl)benzyl]-1H-indazol-5-yl}methylidene)-2-[(3R)-3-(dimethylamino)pyrrolidin-1-yl]-1,3-thiazol-4(5H)-one]"
24,5,"CN1CCN(C2=NC(=O)/C(=C/c3ccc4c(cnn4Cc4ccc(C(F)(F)F)cc4C(F)(F)F)c3)S2)[C@@H](CO)C1 [Example 253, 5-({1-[2,4-Bis(trifluoromethyl)benzyl]-1H-indazol-5-yl}methylidene)-2-[(2R)-2-(hydroxymethyl)-4-methylpiperazin-1-yl]-1,3-thiazol-4(5H)-one]"
25,6.5,"CN1CCN(C2=NC(=O)/C(=C/c3ccc4c(cnn4Cc4ccc(Cl)cc4C(F)(F)F)c3)S2)[C@@H](CO)C1 [Example 254, 5-({1-[4-Chloro-2-(trifluoromethyl)benzyl]-1H-indazol-5-yl}methylidene)-2-[(2R)-2-(hydroxymethyl)-4-methylpiperazin-1-yl]-1,3-thiazol-4(5H)-one]"
26,28,CC[C@H]1CNCCN1C1=NC(=O)/C(=C/c2ccc3c(cnn3Cc3ccc(Cl)cc3C(F)(F)F)c2)S1 [Example 255]
27,49,"CC[C@H]1CN(C)CCN1C1=NC(=O)/C(=C/c2ccc3c(cnn3Cc3ccc(Cl)cc3C(F)(F)F)c2)S1 [Example 256, 5-({1-[4-Chloro-2-(trifluoromethyl)benzyl]-1H-indazol-5-yl}methylidene)-2-((2S)-2-ethyl-4-methylpiperazin-1-yl)-1,3-thiazol-4(5H)-one]"
